Some results are limits rather than exact numbers.

The experiment deals with RKO p21 uninduced (proliferating) colon adenocarcinoma cells. The experiment in a line: Alamar Blue cell viability assay, RKO p21 uninduced (proliferating). The format is cell-based. The conditions noted are these: Homo sapiens, Table B3, anti-proliferative/cytotoxic activity, 72 hours, read-out: −log EC50 RKO p21 uninduced (proliferating) (converted). The gist of the method:
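Viability read by Alamar Blue fluorescence (ex 544, em 590 nm), normalised to untreated wells, after 72 h, 37° C, 5% CO2 compound exposure in triplicate. Cells were uninduced (no Ponasterone A), proliferating RKO colon carcinoma p27 or p21 subclones in DMEM with 10% FCS; values are −log EC50 (mol/l).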
In the case of `CCNCCN1C(=O)N2[C@H](c3cccc(O)c3)c3[nH]c4cc(F)c(OC)cc4c3C[C@@]2(C)C1=O` (racemic) [Example 249, (3aSR,10RS)-2-(2-Ethylamino-ethyl)-7-fluoro-10-(3-hydroxy-phenyl)-6-methoxy-3a-methyl-3a,4,9,10-tetrahydro-2,9,10a-triaza-cyclopenta[b]fluorene-1,3-dione], the 50% effective concentration (EC50) was ≤ 39.8 nM.
The same measure for `CC(C)NCCCN1C(=O)N2[C@H](c3cccc(O)c3)c3[nH]c4cc(F)c(Cl)cc4c3C[C@@]2(C)C1=O` (racemic) [Example 458, (3aSR,10RS)-6-Chloro-7-fluoro-10-(3-hydroxy-phenyl)-2-(3-isopropylamino-propyl)-3a-methyl-3a,4,9,10-tetrahydro-2,9,10a-triaza-cyclopenta[b]fluorene-1,3-dione]: 39.8 to 251 nM; for `C[C@@]12Cc3c([nH]c4ccc(OC(F)F)cc34)[C@@H](c3cccc(O)c3)N1C(=O)N(CCCN1CC=CCC1)C2=O` (racemic) [Example 242, (3aSR,10RS)-6-(1,1-Difluoro-methoxy)-2-[3-(3,6-dihydro-2H-pyridin-1-yl)-propyl]-10-(3-hydroxy-phenyl)-3a-methyl-3a,4,9,10-tetrahydro-2,9,10a-triaza-cyclopenta[b]fluorene-1,3-dione]: ≤ 39.8 nM; for `CC(C)(C)NCCN1C(=O)N2[C@H](c3cccc(O)c3)c3[nH]c4cc(F)c(Cl)cc4c3C[C@@]2(C)C1=O` (racemic) [Example 345, (3aSR,10RS)-2-(2-tert-Butylamino-ethyl)-6-chloro-7-fluoro-10-(3-hydroxy-phenyl)-3a-methyl-3a,4,9,10-tetrahydro-2,9,10a-triaza-cyclopenta[b]fluorene-1,3-dione]: ≤ 39.8 nM.
Consider `CCN(CCO)CCN1C(=O)N2[C@H](c3cccc(O)c3)c3[nH]c4cc(F)c(Cl)cc4c3C[C@@]2(C)C1=O` (racemic) [Example 349, (3aSR,10RS)-6-Chloro-2-{2-[ethyl-(2-hydroxy-ethyl)-amino]-ethyl}-7-fluoro-10-(3-hydroxy-phenyl)-3a-methyl-3a,4,9,10-tetrahydro-2,9,10a-triaza-cyclopenta[b]fluorene-1,3-dione], for which the concentration for a half-maximal effect (EC50) is 39.8 to 251 nM.
For the compound `CCN(CC)CCCN1C(=O)N2[C@H](c3cccc(O)c3)c3[nH]c4cc(F)c(OC)cc4c3C[C@@]2(C)C1=O` (racemic) [Example 313, (3aSR,10RS)-2-(3-Diethylamino-propyl)-7-fluoro-10-(3-hydroxy-phenyl)-6-methoxy-3a-methyl-3a,4,9,10-tetrahydro-2,9,10a-triaza-cyclopenta[b]fluorene-1,3-dione], the 50% effective concentration (EC50) was 39.8 to 251 nM.
As for `CCN(CCOC)CCN1C(=O)N2[C@H](c3cccc(O)c3)c3[nH]c4cc(F)c(Cl)cc4c3C[C@@]2(C)C1=O` (racemic) [Example 350, (3aSR,10RS)-6-Chloro-2-{2-[ethyl-(2-methoxy-ethyl)-amino]-ethyl}-7-fluoro-10-(3-hydroxy-phenyl)-3a-methyl-3a,4,9,10-tetrahydro-2,9,10a-triaza-cyclopenta[b]fluorene-1,3-dione], the EC50 is 39.8 to 251 nM.
As for `COc1ccc2[nH]c3c(c2c1)C[C@@]1(C)C(=O)N(CCCNCC2CC2)C(=O)N1[C@@H]3c1cccc(O)c1` [Example 535, (3aS,10R)-2-[3-(Cyclopropylmethyl-amino)-propyl]-10-(3-hydroxy-phenyl)-6-methoxy-3a-methyl-3a,4,9,10-tetrahydro-2,9,10a-triaza-cyclopenta[b]fluorene-1,3-dione], the figure is ≤ 39.8 nM.
As for `CC(C)N(C)CCCN1C(=O)N2[C@H](c3cccc(O)c3)c3[nH]c4ccc(Br)cc4c3C[C@@]2(C)C1=O` (racemic) [Example 218, (3aSR,10RS)-6-Bromo-10-(3-hydroxy-phenyl)-2-[3-(isopropyl-methyl-amino)-propyl]-3a-methyl-3a,4,9,10-tetrahydro-2,9,10a-triaza-cyclopenta[b]fluorene-1,3-dione], the figure is ≤ 39.8 nM.
As for `C[C@@]12Cc3c([nH]c4ccc(Cl)cc34)[C@@H](c3cccc(O)c3)N1C(=O)N(CCCN1CC=CC1)C2=O` (racemic) [Example 173, (3aSR,10RS)-6-Chloro-2-[3-(2,5-dihydro-pyrrol-1-yl)-propyl]-10-(3-hydroxy-phenyl)-3a-methyl-3a,4,9,10-tetrahydro-2,9,10a-triaza-cyclopenta[b]fluorene-1,3-dione], the figure is ≤ 39.8 nM; as for `CCOc1ccc2[nH]c3c(c2c1)C[C@@]1(C)C(=O)N(CCCNCC2CC2)C(=O)N1[C@@H]3c1cccc(O)c1` (racemic) [Example 188, (3aSR,10RS)-2-[3-(Cyclopropylmethyl-amino)-propyl]-6-ethoxy-10-(3-hydroxy-phenyl)-3a-methyl-3a,4,9,10-tetrahydro-2,9,10a-triaza-cyclopenta[b]fluorene-1,3-dione], 39.8 to 251 nM.
Take `C[C@@]12Cc3c([nH]c4ccc(Br)cc34)[C@@H](c3cccc(O)c3)N1C(=O)N(CCN1CCCC1)C2=O` (racemic) [Example 389, (3aSR,10RS)-6-Bromo-10-(3-hydroxy-phenyl)-3a-methyl-2-(2-pyrrolidin-1-yl-ethyl)-3a,4,9,10-tetrahydro-2,9,10a-triaza-cyclopenta[b]fluorene-1,3-dione]: the concentration giving a half-maximal response (EC50) was ≤ 39.8 nM.
Take `C[C@@]12Cc3c([nH]c4ccc(Br)cc34)[C@@H](c3cccc(O)c3)N1C(=O)N(CCN1CCOCC1)C2=O` (racemic) [Example 388, (3aSR,10RS)-6-Bromo-10-(3-hydroxy-phenyl)-3a-methyl-2-(2-morpholin-4-yl-ethyl)-3a,4,9,10-tetrahydro-2,9,10a-triaza-cyclopenta[b]fluorene-1,3-dione]: the EC50 was 39.8 to 251 nM.
As for `CN1CCN(CCCN2C(=O)N3[C@H](c4cccc(O)c4)c4[nH]c5ccc(Cl)cc5c4C[C@@]3(C)C2=O)CC1` (racemic) [Example 175, (3aSR,10RS)-6-Chloro-10-(3-hydroxy-phenyl)-3a-methyl-2-[3-(4-methyl-piperazin-1-yl)-propyl]-3a,4,9,10-tetrahydro-2,9,10a-triaza-cyclopenta[b]fluorene-1,3-dione], the figure is ≤ 39.8 nM; as for `C[C@@]12Cc3c([nH]c4ccc(OC(F)F)cc34)[C@@H](c3cccc(O)c3)N1C(=O)N(CCNC1CC1)C2=O` (racemic) [Example 286, (3aSR,10RS)-2-(2-Cyclopropylamino-ethyl)-6-(1,1-difluoro-methoxy)-10-(3-hydroxy-phenyl)-3a-methyl-3a,4,9,10-tetrahydro-2,9,10a-triaza-cyclpenta[b]fluorene-1,3-dione], 39.8 to 251 nM.
As for `C[C@@]12Cc3c([nH]c4ccc(Cl)cc34)[C@@H](c3cccc(O)c3)N1C(=O)N(CCCN1CCOCC1)C2=O` (racemic) [Example 171, (3aSR,10RS)-6-Chloro-10-(3-hydroxy-phenyl)-3a-methyl-2-(3-morpholin-4-yl-propyl)-3a,4,9,10-tetrahydro-2,9,10a-triaza-cyclopenta[b]fluorene-1,3-dione], the figure is ≤ 39.8 nM; as for `CCOc1ccc2[nH]c3c(c2c1)C[C@@]1(C)C(=O)N(CCCN2CCOCC2)C(=O)N1[C@@H]3c1cccc(O)c1` (racemic) [Example 207, (3aSR,10RS)-6-Ethoxy-10-(3-hydroxy-phenyl)-3a-methyl-2-(3-morpholin-4-yl-propyl)-3a,4,9,10-tetrahydro-2,9,10a-triaza-cyclopenta[b]fluorene-1,3-dione], 39.8 to 251 nM; as for `C[C@@]12Cc3c([nH]c4ccc(OC(F)F)cc34)[C@@H](c3cccc(O)c3)N1C(=O)N(CCNCCO)C2=O` (racemic) [Example 285, (3aSR,10RS)-6-(1,1-Difluoro-methoxy)-2-[2-(2-hydroxy-ethylamino)-ethyl]-10-(3-hydroxy-phenyl)-3a-methyl-3a,4,9,10-tetrahydro-2,9,10a-triaza-cyclopenta[b]fluorene-1,3-dione], 39.8 to 251 nM.
`CCN(CC)CCN1C(=O)N2[C@H](c3cccc(O)c3)c3[nH]c4ccc(Br)cc4c3C[C@@]2(C)C1=O` (racemic) [Example 385, (3aSR,10RS)-6-Bromo-2-(2-diethylamino-ethyl)-10-(3-hydroxy-phenyl)-3a-methyl-3a,4,9,10-tetrahydro-2,9,10a-triaza-cyclopenta[b]fluorene-1,3-dione]: the 50% effective concentration (EC50) is ≤ 39.8 nM.
As for `CCN(C)CCN1C(=O)N2[C@H](c3cccc(O)c3)c3[nH]c4cc(F)c(Cl)cc4c3C[C@@]2(C)C1=O` (racemic) [Example 347, (3aSR,10RS)-6-Chloro-2-[2-(ethyl-methyl-amino)-ethyl]-7-fluoro-10-(3-hydroxy-phenyl)-3a-methyl-3a,4,9,10-tetrahydro-2,9,10a-triaza-cyclopenta[b]fluorene-1,3-dione], the figure is ≤ 39.8 nM; as for `CCOc1ccc2[nH]c3c(c2c1)C[C@@]1(C)C(=O)N(CCNC(C)C)C(=O)N1[C@@H]3c1cccc(O)c1` (racemic) [Example 152, (3aSR,10RS)-6-Ethoxy-10-(3-hydroxy-phenyl)-2-(2-isopropylamino-ethyl)-3a-methyl-3a,4,9,10-tetrahydro-2,9,10a-triaza-cyclopenta[b]fluorene-1,3-dione], ≤ 39.8 nM; as for `CC(C)CNCCCN1C(=O)N2[C@H](c3cccc(O)c3)c3[nH]c4ccc(OC(F)F)cc4c3C[C@@]2(C)C1=O` (racemic) [Example 199, (3aSR,10RS)-6-(1,1-Difluoro-methoxy)-10-(3-hydroxy-phenyl)-2-(3-isobutylamino-propyl)-3a-methyl-3a,4,9,10-tetrahydro-2,9,10a-triaza-cyclopenta[b]fluorene-1,3-dione], 39.8 to 251 nM.
Consider `COCCNCCN1C(=O)N2[C@H](c3cccc(O)c3)c3[nH]c4cc(F)c(Cl)cc4c3C[C@@]2(C)C1=O` (racemic) [Example 343, (3aSR,10RS)-6-Chloro-7-fluoro-10-(3-hydroxy-phenyl)-2-[2-(2-methoxy-ethylamino)-ethyl]-3a-methyl-3a,4,9,10-tetrahydro-2,9,10a-triaza-cyclopenta[b]fluorene-1,3-dione], for which the concentration for a half-maximal effect (EC50) is ≤ 39.8 nM.

The values above are taken from patent publication US8530493B2, “Indolopyridines as Eg5 kinesin modulators” (4SC AG, priority 2006, dated 2013).
